# Key:
# [1] = system: bacterial reverse mutation; settings: Registered substances; cited from earlier work
# [2] = system: bacterial reverse mutation; experiment: In vitro bacterial reverse mutation assay (Ames)
# mutant IDH2 (mIDH2) = settings: tool compound; Rohle et al. Science 2013; cited from earlier work
# mIDH1-driven gliomas = settings: some model systems; Rohle et al. Science 2013; cited from earlier work
# mutant IDH1 (mIDH1) = settings: cited from earlier work
# [3] = Dissolution of 250 mg tablets spiked with crystalline form, Medium A (pH 6.8, 0.6% SDS); format: physicochemical; settings: 250 mg tablets vs target (nominal) formulation
# Excerpt: (§1) In order to assess the impact of crystalline polymorphic forms on dissolution profiles, variant tablets were manufactured with SDI spiked with drug substance of two different crystalline polymorphs: Form B, and Form L, which forms are as described above. As used herein, the term “spiked” or “spiking” is used consistently with usage in the field of pharmaceutical manufacturing, namely the introduction of a particular form to the crystallization solution to encourage nucleation and growth. These forms were selected because it was determined that if an SDI should crystallize, these two forms would be most likely to be present. However, it is noted that the SDI can be reliably made in completely amorphous form, with no detectable crystalline form present even under stressed conditions.
# 250 mg tables were manufactured by adding 50 mg (20% w/w) of crystalline Form L or Form B with the ivosidenib SDI (therefore, amorphous SDI was present at 80% w/w as a measure of the active ingredient.) […]
# Similar dissolution studies were undertaken with Medium B (pH 6.8, 0.4% SDS). Similarity factors (f2) were calculated to assess the dissolution profiles, compared to a target formulation. […]
# [4] = Dissolution of 250 mg tablets spiked with crystalline form, Medium B (pH 6.8, 0.4% SDS); format: physicochemical; settings: 250 mg tablets vs target (nominal) formulation
# Excerpt: as §1
# 250 mg tables were manufactured by adding 50 mg (20% w/w) of crystalline Form L or Form B with the ivosidenib SDI (therefore, amorphous SDI was present at 80% w/w as a measure of the active ingredient.)
# Similar dissolution studies were undertaken with Medium B (pH 6.8, 0.4% SDS). Similarity factors (f2) were calculated to assess the dissolution profiles, compared to a target formulation. The similarity factors are included in Table 21.
# [5] = Solubility of solid state forms in methanol; format: physicochemical
# [6] = Solubility in 5:95 v/v iPrOAc:heptane slurry; format: physicochemical; settings: remained a thick slurry
# [7] = Competitive slurries of Form L, Form M and Form N; format: physicochemical; settings: Form L, N in dichloromethane, heptane, tBME, acetone, ambient or 35/50 °C
# Description: The temperature was increased to 70° C. to dissolve material. Anti-solvent addition (60 mL heptane) at 60 mL/h was carried out at 70° C. Once the anti-solvent addition was complete, the reaction was cooled to 60° C. and seeded with 0.63 g of Form B ivosidenib, which was stirred at 60° C. for 4 h then cooled to 15° C. over 10 h. An anti-solvent addition was started (308 mL heptane) at 75 mL/h, 15° C., 200 rpm. When the anti-solvent addition finished, the mixture was stirred at 15° C. for 2 h then isolated solid through filtration using a Buchner funnel (120 mm Ø) and washed with 246 mL of iPrOAc:heptane (1:1 v/v). In isopropyl acetate:heptane 5:95 v/v, Form N was retained, while in isopropyl acetate:heptane 20:80 v/v, a mixture of Form B and Form N was obtained.
# The following procedure was followed for competitive slurry trials of the Form L, Form M, and Form N polymorphs: Approximately 50 or 75 mg of each different solid form was weighed out into 1.5 mL screw-cap vials. […]
# Aliquots (100 μL or 25 μL) of appropriate solvent added as required to obtain a mobile slurry which was then stirred at either ambient (ca. 23° C.) or elevated (35 or 50° C.) temperature for ca. 21 or 68.5 h (see Table 4 for details). Solids were isolated solid by centrifugation and analyzed by XRPD. […]
# [8] = potential impurities of ivosidenib drug substance; cited from earlier work
# [9] = Approximate solubility of ivosidenib freebase in 20 solvent systems at RT; format: physicochemical
# Description: Approximate solubility of ivosidenib freebase was determined in 20 solvent systems at RT. In the experiment, ˜2 mg of ivosidenib was added into a 3-mL glass vial, followed by the addition of corresponding solvent. The solvent was added by 100 μL step wise until the solution was visually clear or a total volume of 2 mL was reached. This solubility information was used to select solvents for the polymorph screening.
# mutant IDH1 proteins = settings: U.S. Publication No. 2013/0190249 A1; cited from earlier work
compound,measurement,setting,value
Clc1ccccc1C(Cl)Cl [1-chloro-2-(dichloromethyl)benzene],Ames result reported by ECHA,[1],Ames-negative
ClCc1ccccc1Cl [2-chlorobenzyl chloride],Ames result reported by ECHA,[1],Ames-negative
Fc1cncc(/N=C/c2ccccc2Cl)c1 [(E)-1-(2-chlorophenyl)-N-(5-fluoropyridin-3-yl) methanimine],Ames test result,[2],negative
Cc1ccccc1C(C(=O)NC1CCCCC1)N(C(=O)Cn1ccnc1C)c1cccc(F)c1 (stereo not drawn) [AGI-5198],inhibition of mutant IDH2,mutant IDH2 (mIDH2),not mutant IDH2 (mIDH2)
same,growth of mIDH1-driven gliomas,mIDH1-driven gliomas,repress growth
same,inhibition of mutant IDH1,"mutant IDH1 (mIDH1); tool compound, Rohle et al. Science 2013",inhibit mutant IDH1 (mIDH1)
N#Cc1ccnc(N2C(=O)CC[C@H]2C(=O)N(c2cncc(F)c2)[C@H](C(=O)NC2CC(F)(F)C2)c2ccccc2Cl)c1 [Form B],Similarity factor (f2) result for dissolution medium A,[3],26.0
same,Similarity factor (f2) result for dissolution medium B,[4],43.1
N#Cc1ccnc(N2C(=O)CC[C@H]2C(=O)N(c2cncc(F)c2)[C@H](C(=O)NC2CC(F)(F)C2)c2ccccc2Cl)c1 [Form L],Similarity factor (f2) result for dissolution medium A,[3],28.9
same,Similarity factor (f2) result for dissolution medium B,[4],48.5
N#Cc1ccnc(N2C(=O)CC[C@H]2C(=O)N(c2cncc(F)c2)[C@H](C(=O)NC2CC(F)(F)C2)c2ccccc2Cl)c1 [Form M],solubility in methanol,[5],109 mg/mL
same,solubility,"[5]; organic solvent or mixture, thermodynamic from solid, compared with ~70 mg/mL AG-120 in the SDI spray solution, read-out: solubility",~110 mg/mL
same,solubility in 5:95 v/v iPrOAc:heptane,[6],poorly soluble
N#Cc1ccnc(N2C(=O)CC[C@H]2C(=O)N(c2cncc(F)c2)[C@H](C(=O)NC2CC(F)(F)C2)c2ccccc2Cl)c1 [Form N],most stable anhydrous form in competitive slurries,[7],stable anhydrous form
same,solubility,[5]; compared with ~70 mg/mL AG-120 in the SDI spray solution,~110 mg/mL
same,solubility,"[5]; organic solvent or mixture, thermodynamic from solid, read-out: solubility in methanol",113 mg/mL
same,solubility in 5:95 v/v iPrOAc:heptane,[6],poorly soluble
O=Cc1ccccc1 [benzaldehyde],mutagenicity according to literature,[8],known mutagens
c1ccccc1 [benzene],mutagenicity according to literature,[8],known mutagens
ClCc1ccccc1 [benzyl chloride],mutagenicity according to literature,[8],known mutagens
"N#Cc1ccnc(N2C(=O)CC[C@H]2C(=O)N(c2cncc(F)c2)[C@H](C(=O)NC2CC(F)(F)C2)c2ccccc2Cl)c1 [ivosidenib, (S)—N—((S)-1-(2-Chlorophenyl)-2-(3,3-difluorocyclobutylamino)-2-oxoethyl)-1-(4-cyanopyridin-2-yl)-N-(5-fluoropyridin-3-yl)-5-oxopyrrolidine-2-carboxamide]",Solubility (mg/mL),"[9]; Acetic acid, RT",40.4~20.2 mg/mL
same,Solubility (mg/mL),"[9]; DMSO, RT",46.6~23.2 mg/mL
same,Solubility (mg/mL),"[9]; IPA, RT",38.8~19.4 mg/mL
same,Solubility (mg/mL),"[9]; IPAC, RT",40.2~20.1 mg/mL
same,Solubility (mg/mL),"[9]; MIBK, RT",18.6~12.0 mg/mL
same,Solubility (mg/mL),"[9]; Toluene, RT",18.6~12.4 mg/mL
same,solubility,"[9]; organic solvent or mixture, thermodynamic from solid, 1,4-Dioxane, RT",> 41.6 mg/mL
same,solubility,"[9]; organic solvent or mixture, thermodynamic from solid, 2-MeTHF, RT",> 41.4 mg/mL
same,solubility,"[9]; organic solvent or mixture, thermodynamic from solid, ACN, RT",> 36.8 mg/mL
same,solubility,"[9]; organic solvent or mixture, thermodynamic from solid, Acetone, RT",> 36.4 mg/mL
same,solubility,"[9]; organic solvent or mixture, thermodynamic from solid, CHCl3, RT",> 38.2 mg/mL
same,solubility,"[9]; organic solvent or mixture, thermodynamic from solid, DMA, RT",> 24.5 mg/mL
same,solubility,"[9]; organic solvent or mixture, thermodynamic from solid, EtOAc, RT",> 41.8 mg/mL
same,solubility,"[9]; organic solvent or mixture, thermodynamic from solid, EtOH, RT",> 39.4 mg/mL
same,solubility,"[9]; organic solvent or mixture, thermodynamic from solid, Heptane, RT",< 0.95 mg/mL
same,solubility,"[9]; organic solvent or mixture, thermodynamic from solid, MTBE, RT",> 37.8 mg/mL
same,solubility,"[9]; organic solvent or mixture, thermodynamic from solid, MeOH, RT",> 47.6 mg/mL
same,solubility,"[9]; organic solvent or mixture, thermodynamic from solid, NMP, RT",> 42 mg/mL
same,solubility,"[9]; organic solvent or mixture, thermodynamic from solid, THF, RT",> 39 mg/mL
same,solubility,"[9]; water, thermodynamic from solid, H2O, RT",< 1.26 mg/mL
same,inhibition of mutant IDH1 proteins in cellular assays,mutant IDH1 proteins,inhibitor
same,inhibition of mutant IDH1 proteins in biochemical assays,mutant IDH1 (mIDH1); U.S. Publication No. 2013/0190249 A1,inhibitor

# From US12264148B2, “Ivosidenib forms and pharmaceutical compositions” (Servier Pharmaceuticals LLC, priority 2018, dated 2025)
